Earlier results, collected in patent publication US9873698B2, “Spirocycles as inhibitors of 11-beta hydroxyl steroid dehydrogenase type 1” (Incyte Corporation, priority 2007, dated 2018).

Molecular target: T1, 11βHSD1 (Homo sapiens, UniProt P28845)
T1 construct: host or cells: healthy volunteers, eye (in vivo)
Conditions: healthy volunteers, after seven days of carbenoxolone treatment

T1 sequence (P28845 whole entry): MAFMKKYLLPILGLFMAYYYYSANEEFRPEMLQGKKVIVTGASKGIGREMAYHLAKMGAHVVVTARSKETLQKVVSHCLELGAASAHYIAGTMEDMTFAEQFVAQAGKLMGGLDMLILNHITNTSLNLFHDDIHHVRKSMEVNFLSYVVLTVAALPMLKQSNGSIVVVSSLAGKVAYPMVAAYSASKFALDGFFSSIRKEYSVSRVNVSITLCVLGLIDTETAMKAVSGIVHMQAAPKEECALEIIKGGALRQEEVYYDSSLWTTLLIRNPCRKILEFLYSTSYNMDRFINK

CC1(C)[C@@H](OC(=O)CCC(=O)O)CC[C@]2(C)[C@H]3C(=O)C=C4[C@@H]5C[C@@](C)(C(=O)O)CC[C@]5(C)CC[C@@]4(C)[C@]3(C)CC[C@@H]12 [carbenoxolone]
IOP reduced by: 18%
